{
  "source": "patent US20090062899A1",
  "about": "“COMPOSITE STENT WITH POLYMERIC COVERING AND BIOACTIVE COATING” (NFOCUS NEUROMEDICAL, INC., priority 2001, published 2009)",
  "system": "endothelial cells",
  "experiment": "cell growth on surfaces carrying the bioactive (P15) coating",
  "format": "cell-based",
  "conditions": "polymer sleeve covered with the peptide",
  "source_text": "Chemical/biological testing such as MA (amino acid analysis), in vitro cell cultures followed by SEM (scanning electron microscopy), and in vivo testing can be used for evaluating the coatings of the present invention.",
  "data": [
    {"substance": "H-Gly-Thr-Pro-Gly-Pro-Gln-Gly-Ile-Ala-Gly-Gln-Arg-Gly-Val-Val-OH (H-GTPGPQGIAGQRGVV-OH; also: covalently bound coating on PTFE) [P15]", "values": [
      {"measurement": "endothelial cell growth", "result": "stimulated"}
    ]}
  ]
}
